The values that follow are results of earlier work, collected in publication PMC6500982 (Cancer Science, 2019).

Like-named read-outs stand apart in the source and are kept apart here.

The subject of the series is ABC DLBCL tumors. As to conditions: cited from earlier work.

Regarding `C=CC(=O)N1CCC[C@@H](n2nc(-c3ccc(Oc4ccccc4)cc3)c3c(N)ncnc32)C1` [ibrutinib], the “Patients who responded to treatment” value (ABC tumors with B‐cell receptor mutations who also had MYD88 mutations) is on record as 80% and the “Patients who responded to treatment” value (ABC tumors with B‐cell receptor mutations) is on record as 55.5%.
